Laboratory results reported in EPA's ToxValDB 9.5 (doi:10.2903/j.efsa.2020.6151).

Key:
Folsomia candida = conditions: chronic/long-term; duration: 28 days; reproduction
Bibionidae = conditions: chronic/long-term; duration: 28 days; seedling emergence
Daphnia magna = conditions: chronic/long-term; duration: 21 days; other
Apis mellifera = conditions: acute, mortality
Pimephales promelas = conditions: chronic/long-term; duration: 33 days; other
Colinus virginianus = conditions: for LD50: acute, oral, mortality
Typhlodromus pyri = experiment: LR50; higher = less toxic; conditions: not reported; mortality

`C#CCOC(=O)[C@@H](C)Oc1ccc(Oc2ncc(Cl)cc2F)cc1` [Clodinafop-propargyl] showed an NOEC (Folsomia candida) of 1.6 mg/kg, an LD50 (Rattus norvegicus; acute, oral, mortality) greater than 1390 mg/kg and an NOAEL (Rattus norvegicus; chronic, duration: 2 years, M, histopathology: neoplastic) of 0.03 mg/kg-day. For the same compound, the NOAEL (Rattus norvegicus; developmental, development) was 5 mg/kg-day, the NOAEL (Rattus norvegicus; reproduction developmental, body weight) was 3.4 mg/kg-day and the NOAEL (Rattus norvegicus; subchronic, duration: 90 days, organ weight) was 0.92 mg/kg-day. It also gave an NOEC (Bibionidae) of 1.2 mg/L, an NOEC (Daphnia magna) of 0.23 mg/L and an LD50 (Apis mellifera; dermal) greater than 100 µg/piece. It also gave an LD50 (Apis mellifera; oral, unspecified) greater than 104 µg/piece, an NOEC (Pimephales promelas) of 0.024 mg/L and an LD50 (Colinus virginianus; duration: 5 days, diet) greater than 1040 mg/kg-day. For the same compound, the LD50 (Colinus virginianus) was 1460 mg/kg, the NOEC (Colinus virginianus; reproduction developmental) was 48.9 mg/kg-day and the LR50 (Typhlodromus pyri) was greater than 90 g/ha.
